The source of these data is patent US20080292619A1, “Pharmaceutical Composition Containing Meltrin Antagonist” (MOCHIDA PHARMACEUTICAL CO., LTD., priority 2004, published 2008).

In the oligonucleotide strings, read from the 5' end, every base follows the letter of its sugar. An asterisk marks phosphorothioate; unmarked linkages are phosphodiester. Other units and linkages are bracketed, terminal groups are in braces. A string of capitals states the bases alone. d = 2'-deoxy (DNA)

This data set has as its system human meltrin α RNA. In words: Suppression of human meltrin α expression by antisense compound in RD cell (real time PCR). In kind it is cell-based. The settings on record: RD cell. In short, it runs like this: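 RD cells transfected with heat-denatured antisense oligodeoxynucleotide plus Lipofectin in Opti-MEM for 4 h at 37° C, then cultured 18 h. Meltrin α RNA quantified by TaqMan RT-PCR against plasmid standard curve, GAPDH-corrected; suppression vs untreated cells, rated +/++/+++ for ≥30/50/70%.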
In general terms: Real-time PCR tracks product formation cycle by cycle.

“H139 + 13: aggtgcacgtggggcccggt (AGGTGCACGTGGGGCCCGGT; antisense; DNA, all phosphorothioate, methylation of C not given here)”: the “suppression rate of expression, 50 nM” value (corrected by GAPDH) was “+ (“+” when the suppression rate was at least 30%)”.

Consider “H100: actttgccacagttgccata (dA*dC*dT*dT*dT*dG*dC*dC*dA*dC*dA*dG*dT*dT*dG*dC*dC*dA*dT*dA; antisense)”, for which, under “corrected by GAPDH”, the “suppression rate of expression, 200 nM” value is “+ (“+” when the suppression rate was at least 30%)”.

In the case of “H137: gctgagggacattcaggccg (GCTGAGGGACATTCAGGCCG; antisense; DNA, all phosphorothioate, methylation of C not given here)”, for the setting “corrected by GAPDH”, the “suppression rate of expression, 50 nM” value was “++ (“++” when the suppression rate was at least 50%)” and the “suppression rate of expression, 200 nM” value is listed as “++ (“++” when the suppression rate was at least 50%)”.

Take “H014: ctcgggcccggcggcgagcg (CTCGGGCCCGGCGGCGAGCG; antisense; DNA, all phosphorothioate, methylation of C not given here)”: the “suppression rate of expression, 200 nM” value (corrected by GAPDH) was “+++ (“+++” when the suppression rate was at least 70%)”.

In the case of “H160: gcaccatagcacagcacagc (dG*dC*dA*dC*dC*dA*dT*dA*dG*dC*dA*dC*dA*dG*dC*dA*dC*dA*dG*dC; antisense)”, where the note is “corrected by GAPDH”, the “suppression rate of expression, 200 nM” value was “++ (“++” when the suppression rate was at least 50%)”.

For the substance “H044: tctttgcagcgaggtttggt (TCTTTGCAGCGAGGTTTGGT; antisense; DNA, all phosphorothioate, methylation of C not given here)”, under “corrected by GAPDH”, the “suppression rate of expression, 200 nM” value was “++ (“++” when the suppression rate was at least 50%)”.

Consider “H139 + 17: cgctaggtgcacgtggggcc (CGCTAGGTGCACGTGGGGCC; antisense; DNA, all phosphorothioate, methylation of C not given here)”, for which the “suppression rate of expression, 50 nM” value (corrected by GAPDH) is on record as “+ (“+” when the suppression rate was at least 30%)”.

For the substance “H144 + 12: aggatctgcaggcagaggct (AGGATCTGCAGGCAGAGGCT; antisense; DNA, all phosphorothioate, methylation of C not given here)”, the “suppression rate of expression, 50 nM” value (corrected by GAPDH) was “+++ (“+++” when the suppression rate was at least 70%)”.

With “H040: ttgtatctgttggttgcact (TTGTATCTGTTGGTTGCACT; antisense; DNA, all phosphorothioate, methylation of C not given here)”, under “corrected by GAPDH”, the “suppression rate of expression, 200 nM” value is on record as “+ (“+” when the suppression rate was at least 30%)”.

Turning to “H145 + 10: ccgagttgttctggccagag (dC*dC*dG*dA*dG*dT*dT*dG*dT*dT*dC*dT*dG*dG*dC*dC*dA*dG*dA*dG; antisense)”, the “suppression rate of expression, 50 nM” value (corrected by GAPDH) is on record as “++ (“++” when the suppression rate was at least 50%)”.

On to “H243: cagcagtattattttccagc (DNA dC*dA*dG*dC*dA*dG*dT*dA*dT*dT*dA*dT*dT*dT*dT*dC*dC*dA*dG*dC; antisense)”, for which the “suppression rate of expression, 200 nM” value (corrected by GAPDH) was “+ (“+” when the suppression rate was at least 30%)”.

With “H171: gggactgctttccaataagg (dG*dG*dG*dA*dC*dT*dG*dC*dT*dT*dT*dC*dC*dA*dA*dT*dA*dA*dG*dG; antisense)”, the “suppression rate of expression, 200 nM” value (corrected by GAPDH) was “++ (“++” when the suppression rate was at least 50%)”.

In the case of “H187: ggctggtcagctcagggtca (dG*dG*dC*dT*dG*dG*dT*dC*dA*dG*dC*dT*dC*dA*dG*dG*dG*dT*dC*dA; antisense)”, the “suppression rate of expression, 200 nM” value (corrected by GAPDH) was “+++ (“+++” when the suppression rate was at least 70%)”.

With “H144: cagaggcttctgaggggggt (CAGAGGCTTCTGAGGGGGGT; antisense; DNA, all phosphorothioate, methylation of C not given here)”, under “corrected by GAPDH”, the “suppression rate of expression, 50 nM” value is reported as “+ (“+” when the suppression rate was at least 30%)” and the “suppression rate of expression, 200 nM” value is “++ (“++” when the suppression rate was at least 50%)”.

On to “H179: gttgtcaaggggcacagggc (dG*dT*dT*dG*dT*dC*dA*dA*dG*dG*dG*dG*dC*dA*dC*dA*dG*dG*dG*dC; antisense)”, for which the “suppression rate of expression, 200 nM” value (corrected by GAPDH) was “++ (“++” when the suppression rate was at least 50%)”.

In the case of “H150 + 15: ggtggatctgggcacttggt (dG*dG*dT*dG*dG*dA*dT*dC*dT*dG*dG*dG*dC*dA*dC*dT*dT*dG*dG*dT; antisense)”, the “suppression rate of expression, 50 nM” value (corrected by GAPDH) is given as “+ (“+” when the suppression rate was at least 30%)”.

Turning to “H098: ctctctcaaagcagatccca (dC*dT*dC*dT*dC*dT*dC*dA*dA*dA*dG*dC*dA*dG*dA*dT*dC*dC*dC*dA; antisense)”, the “suppression rate of expression, 200 nM” value (corrected by GAPDH) is “+ (“+” when the suppression rate was at least 30%)”.

As for “H093: gtccacatcctgacatgagt (dG*dT*dC*dC*dA*dC*dA*dT*dC*dC*dT*dG*dA*dC*dA*dT*dG*dA*dG*dT; antisense)”, under “corrected by GAPDH”, the “suppression rate of expression, 200 nM” value was “+ (“+” when the suppression rate was at least 30%)”.

Turning to “H143 + 5: ggggtttggcttacaggtcc (GGGGTTTGGCTTACAGGTCC; antisense; DNA, all phosphorothioate, methylation of C not given here)”, under “corrected by GAPDH”, the “suppression rate of expression, 50 nM” value is given as “++ (“++” when the suppression rate was at least 50%)”.

Regarding “H088: gagtccctgcacgctgttcc (dG*dA*dG*dT*dC*dC*dC*dT*dG*dC*dA*dC*dG*dC*dT*dG*dT*dT*dC*dC; antisense)”, under “corrected by GAPDH”, the “suppression rate of expression, 200 nM” value is on record as “+ (“+” when the suppression rate was at least 30%)”.

Consider “H144 + 13: gaggatctgcaggcagaggc (GAGGATCTGCAGGCAGAGGC; antisense; DNA, all phosphorothioate, methylation of C not given here)”, for which the “suppression rate of expression, 50 nM” value (corrected by GAPDH) is listed as “++ (“++” when the suppression rate was at least 50%)”.

As to “H033: gtgacccagaattaccgtgt (GTGACCCAGAATTACCGTGT; antisense; DNA, all phosphorothioate, methylation of C not given here)”, under “corrected by GAPDH”, the “suppression rate of expression, 200 nM” value is listed as “+ (“+” when the suppression rate was at least 30%)”.

For “H144 + 8: tctgcaggcagaggcttctg (TCTGCAGGCAGAGGCTTCTG; antisense; DNA, all phosphorothioate, methylation of C not given here)”, the “suppression rate of expression, 50 nM” value (corrected by GAPDH) is on record as “+ (“+” when the suppression rate was at least 30%)”.

With “H076-OMe1: chimeric antisense oligonucleotide GCTGGtctccaagtcCTTCC, uppercase 2′-methoxy nucleotides, lowercase phosphorothioate nucleotides (GCTGGTCTCCAAGTCCTTCC; 2'-O-methyl at 1, 2, 3, 4, 5, 16, 17, 18, 19, 20, other sugars, backbone and T or U not given here; lowercase gap nucleotides phosphorothioate)”, the “suppression rate of expression, 200 nM” value (chimeric 2′-methoxy antisense oligonucleotides) was “++ (“++” when the suppression rate was at least 50%)”.

“H118: ggaggtgcccagtgggcctc (GGAGGTGCCCAGTGGGCCTC; antisense; DNA, all phosphorothioate, methylation of C not given here)”: where the note is “corrected by GAPDH”, the “suppression rate of expression, 50 nM” value is “+ (“+” when the suppression rate was at least 30%)” and the “suppression rate of expression, 200 nM” value is given as “++ (“++” when the suppression rate was at least 50%)”.

For the substance “H136 + 5: ggccgttgaggggtctgctg (GGCCGTTGAGGGGTCTGCTG; antisense; DNA, all phosphorothioate, methylation of C not given here)”, for the setting “corrected by GAPDH”, the “suppression rate of expression, 50 nM” value is “+ (“+” when the suppression rate was at least 30%)”.

Consider “H233: agttttgttttctggaaggc (DNA dA*dG*dT*dT*dT*dT*dG*dT*dT*dT*dT*dC*dT*dG*dG*dA*dA*dG*dG*dC; antisense)”, for which, where the note is “corrected by GAPDH”, the “suppression rate of expression, 200 nM” value is reported as “+ (“+” when the suppression rate was at least 30%)”.

As for “H235: ttgcctagatacagtgggga (DNA dT*dT*dG*dC*dC*dT*dA*dG*dA*dT*dA*dC*dA*dG*dT*dG*dG*dG*dG*dA; antisense)”, the “suppression rate of expression, 200 nM” value (corrected by GAPDH) is “++ (“++” when the suppression rate was at least 50%)”.

Take “H085: gcgcacacagcgtccggctt (dG*dC*dG*dC*dA*dC*dA*dC*dA*dG*dC*dG*dT*dC*dC*dG*dG*dC*dT*dT; antisense)”: the “suppression rate of expression, 200 nM” value (corrected by GAPDH) is “+ (“+” when the suppression rate was at least 30%)”.

Take “H143 + 14: cttctgaggggggtttggct (CTTCTGAGGGGGGTTTGGCT; antisense; DNA, all phosphorothioate, methylation of C not given here)”: the “suppression rate of expression, 50 nM” value (corrected by GAPDH) is “+ (“+” when the suppression rate was at least 30%)”.

On to “H020: tcacccctcgggcctcgcag (TCACCCCTCGGGCCTCGCAG; antisense; DNA, all phosphorothioate, methylation of C not given here)”, for which the “suppression rate of expression, 200 nM” value (corrected by GAPDH) is listed as “++ (“++” when the suppression rate was at least 50%)”.

For “H126: cagcagtcgtatcaaggtct (CAGCAGTCGTATCAAGGTCT; antisense; DNA, all phosphorothioate, methylation of C not given here)”, the “suppression rate of expression, 200 nM” value (corrected by GAPDH) was “+ (“+” when the suppression rate was at least 30%)”.

Turning to “H096: tccccagagtgtgacacact (dT*dC*dC*dC*dC*dA*dG*dA*dG*dT*dG*dT*dG*dA*dC*dA*dC*dA*dC*dT; antisense)”, for the setting “corrected by GAPDH”, the “suppression rate of expression, 200 nM” value was “+ (“+” when the suppression rate was at least 30%)”.

Consider “H109: tcatcgcccaagtacacgtg (dT*dC*dA*dT*dC*dG*dC*dC*dC*dA*dA*dG*dT*dA*dC*dA*dC*dG*dT*dG; antisense)”, for which, for the setting “corrected by GAPDH”, the “suppression rate of expression, 200 nM” value is given as “++ (“++” when the suppression rate was at least 50%)”.

For the substance “H156: taaaagttggtacaaaaaac (dT*dA*dA*dA*dA*dG*dT*dT*dG*dG*dT*dA*dC*dA*dA*dA*dA*dA*dA*dC; antisense)”, the “suppression rate of expression, 200 nM” value (corrected by GAPDH) was “+ (“+” when the suppression rate was at least 30%)”.

For “H130 + 15: tggccgaggtgagcctgaca (TGGCCGAGGTGAGCCTGACA; antisense; DNA, all phosphorothioate, methylation of C not given here)”, the “suppression rate of expression, 50 nM” value (corrected by GAPDH) is listed as “++ (“++” when the suppression rate was at least 50%)”.
